Reference: article PMC5218480 (PLoS ONE, 2017)

System: MV-4-11 cells
Assay: Gene expression microarray analysis (Affymetrix PrimeView) and GSEA
Format: cell-based, human
Parameters: RFU PODN (11730768_x_at) / Fold change /veh PODN (11730768_x_at) / RFU LINC00158 (11744669_a_at) / Fold change /veh LINC00158 (11744669_a_at) / RFU DUSP10 (11751237_a_at) / Fold change /veh DUSP10 (11751237_a_at) / RFU ID3 (11757404_x_at) / Fold change /veh ID3 (11757404_x_at) / RFU PLEKHG5 (11737974_s_at) / Fold change /veh PLEKHG5 (11737974_s_at) / RFU LRRC4B (11730491_at) / Fold change /veh LRRC4B (11730491_at) / RFU GIMAP4 (11747438_a_at) / Fold change /veh GIMAP4 (11747438_a_at) / RFU KRT8 (11758183_x_at) / Fold change /veh KRT8 (11758183_x_at) / RFU CNN1 (11734310_a_at) / Fold change /veh CNN1 (11734310_a_at) / RFU VPS37D (11726825_at) / Fold change /veh VPS37D (11726825_at) / RFU C10orf10 (11716522_x_at) / Fold change /veh C10orf10 (11716522_x_at) / RFU KIR2DL2 /// KIR2DL4 /// KIR2DL5A /// KIR2DL5B /// KIR2DS1 /// KIR2DS2 /// KIR2DS3 /// KIR2DS4 /// KIR3DL3 /// KIR3DL3 /// KIR3DS1 (11738374_at) / Fold change /veh KIR2DL2 /// KIR2DL4 /// KIR2DL5A /// KIR2DL5B /// KIR2DS1 /// KIR2DS2 /// KIR2DS3 /// KIR2DS4 /// KIR3DL3 /// KIR3DL3 /// KIR3DS1 (11738374_at) / RFU C1QL1 (11718748_at) / Fold change /veh C1QL1 (11718748_at) / RFU TMPRSS4 (11747572_a_at) / Fold change /veh TMPRSS4 (11747572_a_at) / RFU HAMP (11756126_x_at) / Fold change /veh HAMP (11756126_x_at) / RFU RNFT2 (11725882_a_at) / Fold change /veh RNFT2 (11725882_a_at) / RFU NR4A2 (11747474_a_at) / Fold change /veh NR4A2 (11747474_a_at) / RFU ABCC12 (11746883_a_at) / Fold change /veh ABCC12 (11746883_a_at) / RFU TMEM136 (11760407_x_at) / Fold change /veh TMEM136 (11760407_x_at) / RFU CLDN22 /// WWC2 (11732394_at) / Fold change /veh CLDN22 /// WWC2 (11732394_at) / RFU HLA-DPB1 (11760878_x_at) / Fold change /veh HLA-DPB1 (11760878_x_at) / RFU SPINT1 (11716480_a_at) / Fold change /veh SPINT1 (11716480_a_at) / RFU GAP43 (11754022_s_at) / Fold change /veh GAP43 (11754022_s_at) / RFU A4GNT (11735810_at) / Fold change /veh A4GNT (11735810_at) / RFU PRB3 (11715151_x_at) / Fold change /veh PRB3 (11715151_x_at) / RFU TUBB4B (11761932_at) / Fold change /veh TUBB4B (11761932_at) / RFU CAPN14 (11732068_a_at) / Fold change /veh CAPN14 (11732068_a_at) / RFU TMCC2 (11721928_a_at) / Fold change /veh TMCC2 (11721928_a_at) / RFU IRGQ (11745062_a_at) / Fold change /veh IRGQ (11745062_a_at) / RFU FAM174B (11720279_a_at) / Fold change /veh FAM174B (11720279_a_at) / RFU TMPRSS4 (11748680_a_at) / Fold change /veh TMPRSS4 (11748680_a_at) / RFU FAM212B (11763350_a_at) / Fold change /veh FAM212B (11763350_a_at) / RFU PLEKHG5 (11743358_a_at) / Fold change /veh PLEKHG5 (11743358_a_at) / RFU ZSCAN30 (11745921_a_at) / Fold change /veh ZSCAN30 (11745921_a_at) / RFU CMKLR1 (11741424_a_at) / Fold change /veh CMKLR1 (11741424_a_at) / RFU LOC101060620 /// MAPK8IP1 (11723275_at) / Fold change /veh LOC101060620 /// MAPK8IP1 (11723275_at) / RFU SPTSSB (11747773_x_at) / Fold change /veh SPTSSB (11747773_x_at) / RFU PRSS12 (11739890_at) / Fold change /veh PRSS12 (11739890_at) / RFU BIN1 (11741810_x_at) / Fold change /veh BIN1 (11741810_x_at) / RFU WNT11 (11732464_a_at) / Fold change /veh WNT11 (11732464_a_at) / RFU C10orf10 (11716521_a_at) / Fold change /veh C10orf10 (11716521_a_at) / RFU C5orf56 (11738089_at) / Fold change /veh C5orf56 (11738089_at) / RFU CYB561 (11721691_x_at) / Fold change /veh CYB561 (11721691_x_at) / RFU ANKRD19P (11752326_a_at) / Fold change /veh ANKRD19P (11752326_a_at) / RFU OR2T12 /// OR2T33 /// OR2T8 (11738714_s_at) / Fold change /veh OR2T12 /// OR2T33 /// OR2T8 (11738714_s_at) / RFU VCAN (11748164_a_at) / Fold change /veh VCAN (11748164_a_at) / RFU JSRP1 (11732532_at) / Fold change /veh JSRP1 (11732532_at) / RFU KRTAP10-11 (11738290_x_at) / Fold change /veh KRTAP10-11 (11738290_x_at) / RFU MYO3A (11730013_a_at) / Fold change /veh MYO3A (11730013_a_at) / RFU EBF3 (11725865_a_at) / Fold change /veh EBF3 (11725865_a_at) / RFU CAMK2N1 (11719241_x_at) / Fold change /veh CAMK2N1 (11719241_x_at) / RFU C5orf56 (11738088_a_at) / Fold change /veh C5orf56 (11738088_a_at) / RFU OLFML3 (11715873_a_at) / Fold change /veh OLFML3 (11715873_a_at) / RFU LOC100653217 /// NTM (11731650_a_at) / Fold change /veh LOC100653217 /// NTM (11731650_a_at) / RFU MAPK11 (11762145_a_at) / Fold change /veh MAPK11 (11762145_a_at) / RFU FIZ1 (11724087_x_at) / Fold change /veh FIZ1 (11724087_x_at) / RFU OASL (11726364_x_at) / Fold change /veh OASL (11726364_x_at) / RFU SOX15 (11748057_x_at) / Fold change /veh SOX15 (11748057_x_at) / RFU CD79A (11719716_a_at) / Fold change /veh CD79A (11719716_a_at) / RFU HIST1H1D (11736915_at) / Fold change /veh HIST1H1D (11736915_at) / RFU CASKIN2 (11723855_a_at) / Fold change /veh CASKIN2 (11723855_a_at) / RFU LOC730098 (11760151_x_at) / Fold change /veh LOC730098 (11760151_x_at) / RFU OR4N2 (11742367_at) / Fold change /veh OR4N2 (11742367_at) / RFU PRRT2 (11749266_a_at) / Fold change /veh PRRT2 (11749266_a_at) / RFU SNX32 (11753110_a_at) / Fold change /veh SNX32 (11753110_a_at) / RFU CDHR5 (11726645_a_at) / Fold change /veh CDHR5 (11726645_a_at) / RFU RCAN1 (11760418_a_at) / Fold change /veh RCAN1 (11760418_a_at) / RFU FAM167A (11723789_a_at) / Fold change /veh FAM167A (11723789_a_at) / RFU FAM26E (11764081_at) / Fold change /veh FAM26E (11764081_at) / RFU ISYNA1 (11749810_s_at) / Fold change /veh ISYNA1 (11749810_s_at) / RFU ACY1 (11761880_at) / Fold change /veh ACY1 (11761880_at) / RFU 11764098_at / Fold change /veh 11764098_at / RFU SAMD14 (11745864_x_at) / Fold change /veh SAMD14 (11745864_x_at) / RFU NPB (11741838_a_at) / Fold change /veh NPB (11741838_a_at) / RFU TMPRSS6 (11731388_a_at) / Fold change /veh TMPRSS6 (11731388_a_at) / RFU KRTAP10-2 (11738614_at) / Fold change /veh KRTAP10-2 (11738614_at) / RFU ARHGAP8 /// PRR5-ARHGAP8 (11727945_x_at) / Fold change /veh ARHGAP8 /// PRR5-ARHGAP8 (11727945_x_at) / RFU KRTAP5-7 /// NADSYN1 (11734609_at) / Fold change /veh KRTAP5-7 /// NADSYN1 (11734609_at) / RFU RASL12 (11751679_a_at) / Fold change /veh RASL12 (11751679_a_at) / RFU CDKN2B (11736163_a_at) / Fold change /veh CDKN2B (11736163_a_at) / RFU PRF1 (11729649_at) / Fold change /veh PRF1 (11729649_at) / RFU, ZNF638 /// ZNF638-IT1 / Fold change vs veh, ZNF638 /// ZNF638-IT1 / RFU, PANK3 / Fold change vs veh, PANK3 / RFU, SH3YL1 / Fold change vs veh, SH3YL1 / RFU, ZEB2 / Fold change vs veh, ZEB2 / RFU, NRIP1 / Fold change vs veh, NRIP1 / RFU, PTTG1IP / Fold change vs veh, PTTG1IP / RFU, CAPN2 / Fold change vs veh, CAPN2 / RFU, MED14 / Fold change vs veh, MED14 / RFU, SNORA58 / Fold change vs veh, SNORA58 / RFU, C1orf63 / Fold change vs veh, C1orf63 / RFU, LRRFIP1 / Fold change vs veh, LRRFIP1 / RFU, NDUFAF7 / Fold change vs veh, NDUFAF7 / RFU, SLC12A2 / Fold change vs veh, SLC12A2 / RFU, IBTK / Fold change vs veh, IBTK / RFU, ESF1 / Fold change vs veh, ESF1 / Fold change vs veh, TMEM50B / RFU, TAOK1 / Fold change vs veh, TAOK1 / RFU, ACBD3 / Fold change vs veh, ACBD3 / RFU, TMA16 / Fold change vs veh, TMA16 / RFU, RWDD3 / Fold change vs veh, RWDD3 / RFU, BCAT1 / Fold change vs veh, BCAT1 / RFU, EDEM3 / Fold change vs veh, EDEM3 / RFU, TMEM33 / Fold change vs veh, TMEM33 / RFU, WDR75 / Fold change vs veh, WDR75 / RFU, AHCTF1 / Fold change vs veh, AHCTF1 / RFU, TFRC / Fold change vs veh, TFRC / RFU, ZDHHC17 / Fold change vs veh, ZDHHC17 / RFU, NOM1 / Fold change vs veh, NOM1 / RFU, ARL8B / Fold change vs veh, ARL8B / RFU, ZBTB11 / Fold change vs veh, ZBTB11 / RFU, TAMM41 / Fold change vs veh, TAMM41 / RFU, KIAA1704 /// LOC100996395 / Fold change vs veh, KIAA1704 /// LOC100996395 / RFU, ING1 / Fold change vs veh, ING1 / RFU, TRMT61B / Fold change vs veh, TRMT61B / RFU, FUBP3 / Fold change vs veh, FUBP3 / RFU, TP53 / Fold change vs veh, TP53 / RFU, TNKS2 / Fold change vs veh, TNKS2 / RFU, ZFP14 / Fold change vs veh, ZFP14 / RFU, ACTR2 / Fold change vs veh, ACTR2 / RFU, PPP3R1 / Fold change vs veh, PPP3R1 / RFU, PIK3R1 / Fold change vs veh, PIK3R1 / RFU, HNRNPA1 / Fold change vs veh, HNRNPA1 / RFU, RNF170 / Fold change vs veh, RNF170 / RFU, ZNF28 / Fold change vs veh, ZNF28 / RFU, RNGTT / Fold change vs veh, RNGTT / RFU, OGT / Fold change vs veh, OGT / RFU, BRD1 / Fold change vs veh, BRD1 / RFU, MARS / Fold change vs veh, MARS / RFU, ZNF655 / Fold change vs veh, ZNF655 / RFU, FAHD1 / Fold change vs veh, FAHD1 / RFU, BDP1 / Fold change vs veh, BDP1 / RFU, LRRCC1 / Fold change vs veh, LRRCC1 / RFU, ARID1A / Fold change vs veh, ARID1A / RFU, ZNF146 / Fold change vs veh, ZNF146 / RFU, ZNF330 / Fold change vs veh, ZNF330 / RFU, GPN3 / Fold change vs veh, GPN3 / RFU, C9orf123 / Fold change vs veh, C9orf123 / RFU, N4BP2L2 / Fold change vs veh, N4BP2L2 / RFU, ARFIP1 / Fold change vs veh, ARFIP1 / RFU, FAM179B / Fold change vs veh, FAM179B / RFU, BCL10 / Fold change vs veh, BCL10 / RFU, UHRF1BP1L / Fold change vs veh, UHRF1BP1L / RFU, BET1 / Fold change vs veh, BET1 / RFU, CNOT2 / Fold change vs veh, CNOT2 / RFU, ZNF268 / Fold change vs veh, ZNF268 / Fold change vs veh, ZNF507 / RFU, DGCR2 / Fold change vs veh, DGCR2 / RFU, WDSUB1 / Fold change vs veh, WDSUB1 / Fold change vs veh, HSP90B1 /// MIR3652 / RFU, ADSS / Fold change vs veh, ADSS / RFU, GK / Fold change vs veh, GK / RFU, ZNF148 / Fold change vs veh, ZNF148 / RFU, TAF9 / Fold change vs veh, TAF9 / RFU, SLC1A5 / Fold change vs veh, SLC1A5 / RFU, SLMO2 / Fold change vs veh, SLMO2 / RFU, ABCC4 / Fold change vs veh, ABCC4 / RFU, LOC101060439 /// RAP1B / Fold change vs veh, LOC101060439 /// RAP1B / RFU, RFX7 / Fold change vs veh, RFX7 / RFU, GTPBP10 / Fold change vs veh, GTPBP10 / RFU, CNEP1R1 / Fold change vs veh, CNEP1R1 / RFU, BIVM-ERCC5 /// ERCC5 / Fold change vs veh, BIVM-ERCC5 /// ERCC5 / RFU, ILF3 / Fold change vs veh, ILF3 / RFU 11762660_at / Fold change /veh 11762660_at / RFU VCAN (11757783_s_at) / Fold change /veh VCAN (11757783_s_at) / RFU DDX43 (11728927_at) / Fold change /veh DDX43 (11728927_at) / RFU KRT8 (11758188_x_at) / Fold change /veh KRT8 (11758188_x_at) / RFU NKD1 (11759106_at) / Fold change /veh NKD1 (11759106_at) / RFU SRD5A1 (11742802_a_at) / Fold change /veh SRD5A1 (11742802_a_at) / RFU TPSAB1 /// TPSB2 (11721975_s_at) / Fold change /veh TPSAB1 /// TPSB2 (11721975_s_at) / RFU GSTM3 (11746129_a_at) / Fold change /veh GSTM3 (11746129_a_at) / RFU IL23R (11737362_x_at) / Fold change /veh IL23R (11737362_x_at) / RFU TMEM51 (11727254_a_at) / Fold change /veh TMEM51 (11727254_a_at) / RFU PIWIL2 (11732686_x_at) / Fold change /veh PIWIL2 (11732686_x_at) / RFU ORM1 (11744905_x_at) / Fold change /veh ORM1 (11744905_x_at) / RFU CCDC152 (11743942_at) / Fold change /veh CCDC152 (11743942_at) / RFU ECM1 (11717891_a_at) / Fold change /veh ECM1 (11717891_a_at) / RFU IL23R (11748794_a_at) / Fold change /veh IL23R (11748794_a_at) / RFU TNFAIP8L3 (11732012_x_at) / Fold change /veh TNFAIP8L3 (11732012_x_at) / RFU MBOAT4 (11741988_at) / Fold change /veh MBOAT4 (11741988_at) / RFU 11764193_at / Fold change /veh 11764193_at / RFU TMEM53 (11763286_at) / Fold change /veh TMEM53 (11763286_at) / RFU MAGEB2 (11727129_at) / Fold change /veh MAGEB2 (11727129_at) / RFU TMEM200A (11744735_a_at) / Fold change /veh TMEM200A (11744735_a_at) / RFU CCDC152 (11751479_a_at) / Fold change /veh CCDC152 (11751479_a_at) / RFU FAM211A (11726209_a_at) / Fold change /veh FAM211A (11726209_a_at) / RFU RGS16 (11746705_a_at) / Fold change /veh RGS16 (11746705_a_at) / RFU VCAN (11755009_s_at) / Fold change /veh VCAN (11755009_s_at) / RFU RHOB (11743442_s_at) / Fold change /veh RHOB (11743442_s_at) / RFU RGS16 (11720943_a_at) / Fold change /veh RGS16 (11720943_a_at) / RFU RGS16 (11720944_at) / Fold change /veh RGS16 (11720944_at) / RFU, VPS4B / Fold change vs veh, VPS4B / RFU, CREB1 / Fold change vs veh, CREB1 / RFU, DNAJC13 / Fold change vs veh, DNAJC13 / RFU, GNAQ / Fold change vs veh, GNAQ / RFU, CDK5R1 / Fold change vs veh, CDK5R1 / RFU, ZRANB3 / Fold change vs veh, ZRANB3 / RFU, CUL4A / Fold change vs veh, CUL4A / RFU, CCNY / Fold change vs veh, CCNY / RFU, UFL1 / Fold change vs veh, UFL1 / RFU, COG3 / Fold change vs veh, COG3 / RFU, DIAPH2 / Fold change vs veh, DIAPH2 / RFU, SKA2 / Fold change vs veh, SKA2 / RFU, AFF3 / Fold change vs veh, AFF3 / RFU, LMF1 / Fold change vs veh, LMF1 / RFU, IPO11 / Fold change vs veh, IPO11 / RFU, DFFB / Fold change vs veh, DFFB / RFU, FOXP1 / Fold change vs veh, FOXP1 / RFU, CARD8 / Fold change vs veh, CARD8 / RFU, STRN3 / Fold change vs veh, STRN3 / RFU, ADK / Fold change vs veh, ADK / RFU, RASSF2 / Fold change vs veh, RASSF2 / RFU, WIPF1 / Fold change vs veh, WIPF1 / RFU, LARP1B / Fold change vs veh, LARP1B / RFU, RASA1 / Fold change vs veh, RASA1 / RFU, RB1 / Fold change vs veh, RB1 / RFU, PPFIA1 / Fold change vs veh, PPFIA1 / RFU, MAT2A / Fold change vs veh, MAT2A / RFU, CCT5 / Fold change vs veh, CCT5 / RFU, WDR92 / Fold change vs veh, WDR92 / RFU, CUX1 / Fold change vs veh, CUX1 / RFU, TTC7A / Fold change vs veh, TTC7A / RFU, TMEM135 / Fold change vs veh, TMEM135 / RFU, DEPTOR / Fold change vs veh, DEPTOR / RFU, CPM / Fold change vs veh, CPM / RFU, DNAJB6 / Fold change vs veh, DNAJB6 / RFU, CACNA2D3 / Fold change vs veh, CACNA2D3 / RFU, DTX4 / Fold change vs veh, DTX4 / RFU, TFCP2 / Fold change vs veh, TFCP2 / RFU, GMCL1 /// GMCL1P1 / Fold change vs veh, GMCL1 /// GMCL1P1 / RFU, AEBP2 / Fold change vs veh, AEBP2 / RFU, SNHG1 /// SNORD22 /// SNORD25 /// SNORD26 /// SNORD27 /// SNORD28 /// SNORD29 /// SNORD31 / Fold change vs veh, SNHG1 /// SNORD22 /// SNORD25 /// SNORD26 /// SNORD27 /// SNORD28 /// SNORD29 /// SNORD31 / Fold change (Aza/veh), C12orf56 (ProbeSet 11735607_a_at) / Fold change (ACY-1035/veh), C12orf56 (ProbeSet 11735607_a_at) / Fold change (Aza/veh), FGFR1OP (ProbeSet 11751329_s_at) / Fold change (ACY-1035/veh), FGFR1OP (ProbeSet 11751329_s_at) / Fold change (Aza/veh), VPS36 (ProbeSet 11739960_a_at) / Fold change (ACY-1035/veh), VPS36 (ProbeSet 11739960_a_at) / RFU SYPL1 (11715823_x_at) / Fold change /veh SYPL1 (11715823_x_at) / RFU IGFBP7 (11715501_s_at) / Fold change /veh IGFBP7 (11715501_s_at) / RFU REEP3 (11722064_at) / Fold change /veh REEP3 (11722064_at) / RFU IGLL1 (11728026_x_at) / Fold change /veh IGLL1 (11728026_x_at): dose or concentration left out as unconfirmed
Settings: ProbeSet 11743567_s_at; LIST B

SMILES: Nc1ccc(-c2cccs2)cc1NC(=O)c1ccc2c(c1)cc(C1CC1)n2CCN1CCOCC1 [ACY-1035]
- RFU, ACBD3: 241.56 RFU
